# Test results published in publication PMC9737734, “Phytochemical investigation of Ludwigia adscendens subsp. diffusa aerial parts in context of its biological activity” (BMC Chemistry, 2022).
# System: PC-3 cells (human prostate cancer cell line)
# Experiment: Cytotoxic activity, MTT cell viability assay against PC-3 cell line
# Format: cell-based
# Conditions: read-out: Cytotoxcity activity IC50
# Protocol: Cytotoxic activity of L. adscendens aerial part fractions were tested in vitro using MTT cell viability assay as previously described. Briefly, in each well plate 100 µL of fresh culture RPMI 1640 medium without phenol red then 10 µL of the 12 mM MTT stock solution (5 mg of MTT in 1 mL of PBS) were added to each well. An 85 µL aliquot of the incubated media was replaced by 50 µL of DMSO and incubated at 37 °C for 10 min. The optical density was measured at 590 nm with the microplate reader to determine the number of viable cells and the percentage of viability was calculated as the percentage of cell survival was calculated as follows: Surviving fraction=O.D.treated cells/O.D.control cells∗100
compound,measurement,value
COc1cccc2c1C(=O)c1c(O)c3c(c(O)c1C2=O)C[C@@](O)(C(=O)CO)C[C@@H]3O[C@H]1C[C@H](N)[C@H](O)[C@H](C)O1 [Doxorubicin],IC50,34.9 ± 5.21 µg/mL
